# Patent US8637563B2, “Non-peptide thrombopoietin receptor agonist in the treatment of cancer and pre-cancerous syndromes” (GlaxoSmithKline LLC, priority 2007, dated 2014)
# How the values were obtained:
# Assay type in all cases: cell-based
# [1] = tested on: Akt (Ser473) activation in washed human platelets; assay: Activation of Akt in human platelets; conditions: TPO 100 ng/mL; for Akt activation (phosphorylation), agent alone: 15 minutes alone, Compound A (SB) 10 mM, phosphorylation-specific antibodies, Blot 1
# Method: Washed human platelets from healthy volunteers were treated with vehicle (V) [0.33% DMSO], 100 ng/mL TPO [recombinant human thrombopoietin obtained from R&D Systems, Inc., Minneapolis, Minn., USA, or SB (SB=Compound A in Blot 1) (10 mM) for 15 minutes alone, or 13 minutes alone followed by 2 minutes with 1 mM ADP (+ADP). Protein extracts were probed for Akt (Ser473) activation. Results are representative of 3 individual experiments.
# Compound A was compared to TPO in human platelets through the examination of a signal transduction pathway known to be activated through TPOR [TPO receptor] stimulation; specifically, Pi3K/Akt pathway activation [Chen, J., et al., Blood, 86, 4054-4062 (1995); Kojima, H., et al., Thrombosis & Haemostassis, 74, 1541-1545 (1995); Ezumi, Y., et al., FEBS Letters, 374, 48-52 (1995)].
# [2] = tested on: CCRF-CEM Lymphoblastic T cell leukemia cells; assay: Cancer Proliferation Assay (3H-thymidine uptake), CCRF-CEM; conditions: Homo sapiens, 3 days, 3H-TdR uptake
# Method: (§1) Flat-bottom 96-well microtiter tissue culture plates (Costar, Cambridge, Mass.) were used for the assay. Cultures were performed in replicates of 4 wells; each well contained 1×10^4 cells. Six concentrations of Compound A (ranging from 40 μg/mL to 100 ng/mL) were tested in the absence and presence of 10 ng/mL G-CSF, 100 ng/mL of TPO or 5 U/mL of EPO. Cells were also tested in medium alone, G-CSF alone, TPO alone, or EPO alone to establish 100% of control values. The final volume in each well was 200 μL. Plates were placed in a humidified 5% CO2 incubator at 37° C. for 3 days. Proliferation was measured by the uptake of tritiated thymidine (^3H-TdR) by pulsing wells with 1 μCi of ^3H-TdR for the final 18 hours of incubation, harvesting the plate on a Brandel 96-well cell harvester (Gaithersburg, Md.) and measuring radioactivity on the filter mats in a Wallac 1450 Microbeta TriLux scintillation counter (Turku, Finland). The effect of Compound A was determined by comparing the results of cells treated with test compound with control cells (100% of control).
# [3] = tested on: K562 Chronic Myelogenous leukemia cells; assay: Cancer Proliferation Assay (3H-thymidine uptake), K562; conditions: Homo sapiens; K562, 3 days, 3H-TdR uptake
# Method: as §1
# [4] = tested on: MOLT-4 Acute Lymphoblastic T cell leukemia cells; assay: Cancer Proliferation Assay (3H-thymidine uptake), MOLT-4; conditions: Homo sapiens; MOLT-4, 3 days, 3H-TdR uptake
# Method: as §1
# [5] = tested on: RPMI-8226 Plasmacytoma cells; assay: Cancer Proliferation Assay (3H-thymidine uptake), RPMI-8226; conditions: Homo sapiens; RPMI-8226, 3 days, 3H-TdR uptake
# Method: as §1
# [6] = tested on: SR Immunoblastic Large Cell Leukemia cells; assay: Cancer Proliferation Assay (3H-thymidine uptake), SR; conditions: 3 days, 3H-TdR uptake
# Method: as §1
# [7] = tested on: HepG2 cells; assay: Liver Cancer Assay (CellTiter Glo); conditions: Homo sapiens, HepG2, 72 hours, n=4 wells, read-out: IC50, decrease in the number of viable cells
# Method: HepG2 is a human hepatocellular carcinoma cell line. Active cell determinations were performed on HepG2 cells by plating 2×10^4 cells/mL in 96-well plates in culture medium containing 10% FBS and incubating overnight in 5% CO2 at 37°. Cells were then treated with Compound A at 0, 0.1, 0.4, 1, 4, 10, 40 ug/mL and incubated for 72 hours. Cell proliferation was measured using the CellTiter Glo (Promega) reagent according to the manufacturer's protocol. Data is the mean of n=4 wells reported as the percent of the control (0 ug/mL of Compound A). Compound A induced a decrease in the number of viable cells with an IC50 of approximately 6 ug/mL.
# [8] = tested on: NCI-H23 (NSCLC); assay: Solid Tumor Cell Line Proliferation Assay, NCI-H23; conditions: Homo sapiens; NCI-H23, 72 hr, Cell Titer Glo
# Method: (§2) Cells in log phase growth were seeded in a 96-well plate at 2500 cells/well in 50 uL medium and incubated at 37° C., 5% CO2 overnight. Compound A was diluted in medium and added at 0.1, 0.4, 1, 4, 10 and 40 ug/mL. Following a 72 hr incubation at 37° C., 5% CO2. The CellTiter-Glo Luminescent Cell Viability Assay (ProMega Corp) was performed according to the manufacturer's instructions. Briefly following a 30 min room temperature incubation 100 uL CELLTiter Glo reagent was added to each well and mixed for 2 minutes. Luminescence was recorded following a 10 minute room temperature incubation using a PerkinElmer Microbeta luminescence counter. IC50 was determined by EXCel Fit 4.2.1.
# [9] = tested on: HOP-92 (NSCLC); assay: Solid Tumor Cell Line Proliferation Assay, HOP-92; conditions: Homo sapiens; HOP-92, 72 hr, Cell Titer Glo
# Method: as §2
# [10] = tested on: EKVX (NSCLC); assay: Solid Tumor Cell Line Proliferation Assay, EKVX; conditions: Homo sapiens, 72 hr, Cell Titer Glo
# Method: as §2
# [11] = tested on: NCI-H226 (NSCLC); assay: Solid Tumor Cell Line Proliferation Assay, NCI-H226; conditions: Homo sapiens; NCI-H226, 72 hr, Cell Titer Glo
# Method: as §2
# [12] = tested on: HOP-62 (NSCLC); assay: Solid Tumor Cell Line Proliferation Assay, HOP-62; conditions: Homo sapiens; HOP-62, 72 hr, Cell Titer Glo
# Method: as §2
# [13] = tested on: A549 (NSCLC); assay: Solid Tumor Cell Line Proliferation Assay, A549; conditions: Homo sapiens; A549, 72 hr, Cell Titer Glo
# Method: as §2
# [14] = tested on: NCI-H322M (NSCLC); assay: Solid Tumor Cell Line Proliferation Assay, NCI-H322M; conditions: Homo sapiens, 72 hr, Cell Titer Glo
# Method: as §2
# [15] = tested on: NCI-H522 (NSCLC); assay: Solid Tumor Cell Line Proliferation Assay, NCI-H522; conditions: Homo sapiens; NCI-H522, 72 hr, Cell Titer Glo
# Method: as §2
# [16] = tested on: NCI-H460 (NSCLC); assay: Solid Tumor Cell Line Proliferation Assay, NCI-H460; conditions: Homo sapiens; NCI-H460, 72 hr, Cell Titer Glo
# Method: as §2
# [17] = tested on: HepG2 (Hepatocellular carcinoma); assay: Solid Tumor Cell Line Proliferation Assay, HepG2; conditions: Homo sapiens; HepG2, 72 hr, Cell Titer Glo
# Method: Cells in log phase growth were seeded in a 96-well plate at 2500 cells/well in 50 uL medium and incubated at 37° C., 5% CO2 overnight. […] Following a 72 hr incubation at 37° C., 5% CO2. The CellTiter-Glo Luminescent Cell Viability Assay (ProMega Corp) was performed according to the manufacturer's instructions. Briefly following a 30 min room temperature incubation 100 uL CELLTiter Glo reagent was added to each well and mixed for 2 minutes. Luminescence was recorded following a 10 minute room temperature incubation using a PerkinElmer Microbeta luminescence counter. IC50 was determined by EXCel Fit 4.2.1.
IC50 [2] [µg/mL],IC50 [3] [µg/mL],IC50 [4] [µg/mL],IC50 [5] [µg/mL],IC50 [6] [µg/mL],IC50 [7] [µg/mL],IC50 [8] [µg/mL],IC50 [9] [µg/mL],IC50 [10] [µg/mL],IC50 [11] [µg/mL],IC50 [12] [µg/mL],IC50 [13] [µg/mL],IC50 [14] [µg/mL],IC50 [15] [µg/mL],IC50 [16] [µg/mL],IC50 [17] [µg/mL],Compound,"Akt activation (phosphorylation), agent alone [1]","Akt activation in combination with ADP (preincubation with agent) ([1]; 13 minutes alone followed by 2 minutes with ADP, Compound A 10 mM)"
,,,,,,,,,,,,,,,,"Nc1ncnc2c1ncn2[C@@H]1O[C@H](COP(=O)(O)OP(=O)(O)O)[C@@H](O)[C@H]1O [ADP, reference compound]",no activation observed,
0.74,1.8,0.56,5.9,0.77,~6,13.9,13.5,12.7,11,10.6,9.1,8.3,5.9,5.7,5.61,"CC1=NN(c2ccc(C)c(C)c2)C(=O)/C1=N\Nc1cccc(-c2cccc(C(=O)O)c2)c1O [Compound A, 3′-[(2Z)-[1-(3,4-dimethylphenyl)-1,5-dihydro-3-methyl-5-oxo-4H-pyrazol-4-ylidene]hydrazino]-2′-hydroxy-[1,1′-biphenyl]-3-carboxylic acid]",no activation was observed,
,,,,,,,,,,,,,,,,"TPO: recombinant human thrombopoietin obtained from R&D Systems, Inc.",significant Akt activation,significant enhancement of activation of Akt
